Source: US12624039B2, “BTK inhibitors” (DIZAL (JIANGSU) PHARMACEUTICAL CO., LTD., priority 2020, dated 2026)
Values after ≈ are worked out from the molar mass of the structure shown. Like-named read-outs stand apart in the source and are kept apart here.

How the values were obtained:
[1] = In vitro human hepatocytes clearance assay; format: in vitro ADME
Description: (§1) In Vitro Rat/Human Hepatocytes Clearance Assay
(§2) Rat hepatocytes in male gender and human hepatocytes in mixed gender were obtained from commercial vendors (e.g., BioreclamationIVT) and stored at −150° C. prior to use. 10 mM stock solutions of tested compounds were prepared in DMSO. Thawing medium and supplement incubation medium (serum-free) were placed in a 37° C. water bath for at least 15 minutes prior to use. Stock solutions were diluted to 100 μM by combining 198 μL acetonitrile and 2 μL of 10 mM stock solution.
(§3) Vials of cryopreserved hepatocytes were removed from storage, ensured that vials remain at cryogenic temperatures. The vials were thawed in a 37° C. water bath with gently shaking. Vials were kept in a water bath until all ice crystals had dissolved and were no longer visible. Vials were sprayed with 70% ethanol before being transferred to a biosafety cabinet. And then the contents were poured into the 50 mL thawing medium conical tube. Vials were centrifuged at 100 g for 10 minutes at room temperature. Thawing medium was aspirated and hepatocytes were resuspended with serum-free incubation medium to yield ^˜1.5×10^6 cells/mL.
(§4) Cell viability and density were counted using a Trypan Blue exclusion, and then cells were diluted with serum-free incubation medium to a working cell density of 1×10^6 viable cells/ml. A portion of the hepatocytes at 1×10^6 viable cells/mL was boiled for 10 min prior to adding to the plate as negative control to eliminate the enzymatic activity so that little or no substrate turnover should be observed. The inactivated hepatocytes were used to prepare negative samples, which were used to exclude the misleading factor that resulted from instability of chemical itself.
(§5) Aliquots of 247.5 μL hepatocytes were dispensed into each well of a 96-well non-coated plate. The plate was placed in the incubator on an orbital shaker for approximately 10 minutes. Aliquots of 2.5 μL of the 100 μM test compounds were added into respective wells of the non-coated 96-well plate to start the reaction. This assay was performed in duplicate. The plate was incubated in the incubator on an orbital shaker for the designed time points. 20 μL of contents were transferred and mixed with 6 volumes (120 μL) of cold acetonitrile with internal standard to terminate the reaction at time points of 5, 15, 30, 45, 60, 80 and 100 minutes. Samples were centrifuges for 20 minutes at 4000 g and aliquots of 100 μl of the supernatants were used for LC-MS/MS analysis for measurement of test compounds.
(§6) In vitro hepatocyte clearance was estimated based on determination of elimination half-life (T1/2) of compounds disappearance from their initial concentrations. Peak area ratios of each compound (test or control) to IS was calculated. Ln (% Control) versus Incubation Time (min) curve was plotted, and the slope of a linear fitting line was calculated. Drug elimination rate constant k (min-1), T1/2 (min), and in vitro intrinsic clearance CLint (μL/min/E6) was calculated according to the following equations: k=−slope T1/2=0.693/k CLint=k/Chep • Where Chep (cells×μL-1) is the cell concentration in the incubation system. Procedure for Log D Determination

[2] = target: T1, p-BTK (Phospho-Btk Tyr223) in TMD-8 cells (Homo sapiens, UniProt Q06187); assay: TMD8 cell line p-BTK Elisa assay; format: cell-based; settings: for Maximal Inhibition Level: p-BTK ELISA; for IC50: pervanadate 100 μM, Tyr223 ELISA
T1 construct: endogenous in cells; host or cells: TMD-8
Description: The test compounds were added to the cells and cells were incubated for 0.5 hour at 37° C., 5% CO2. Then pervanadate solution was added to the cells to make a final concentration of 100 μM, and cells were incubated for a further 1 hour at 37° C., 5% CO2. […] The plate was read on a Multiscan Spectrum reader set to 450 nm wavelengths.

[3] = Log D determination (octanol/phosphate buffer); format: physicochemical; settings: 25° C.
Description: 10 μL of working solution of each cassette is placed in order into respective 96-well rack position (Log D plate). Add 500 μL of saturated octanol into each vial of the above cap-less Log D plate followed by the addition of 500 μL of saturated phosphate buffer. Seal with a moulded PTFE/SIL 96-Well Plate Cover.
The samples are centrifuged at 4,000 rpm at 25° C. for 30 minutes to separate the phases. Pipette and syringe are used to pipette about 100 μL from the octanol and buffer phases to a new 96-well plate, respectively.
5 μL of octanol sample is transferred to a new 96-well plate, followed by addition of 495 μL of a mixture of H2O and acetonitrile containing internal standard (1:1) as 100 fold octanol samples. Vortex for 5 minutes at 1,000 rpm.
50 μL of 100 fold samples are transferred to new 96-well plate, followed by addition of 450 μL of a mixture of H2O and acetonitrile containing internal standard (1:1) as 1,000 fold octanol samples. Vortex for 5 minutes at 1,000 rpm.
The 1,000 folds octanol samples are serially diluted into 10,000, 100,000 and 1,000,000 folds with a mixture of H2O and acetonitrile containing internal standard (1:1).
50 μL of buffer samples are transferred to new 96-well plate, followed by addition of 450 μL of a mixture of H2O and acetonitrile containing internal standard (1:1) as 10 folds buffer samples. Vortex for 5 minutes at 1,000 rpm.
The 10 folds buffer samples are serially diluted into 100, 1,000 and 10,000 folds with a mixture of H2O and acetonitrile containing internal standard (1:1). The samples are evaluated by LC/MS/MS analysis. All compounds are tested in singlicate.
All calculations are carried out using Microsoft Excel. The concentrations of test compound in octanol/buffer solution are evaluated by LC/MS/MS. Calculate the Log D value of the test compound as follows:
[formula] DF means the dilution factor. Procedure for Protein Binding Measurements in Human Plasma by Using Equilibrium Dialysis

DMSO solubility = format: physicochemical
Recombinant BTK(C481S) = target: T2, Recombinant BTK(C481S) (Homo sapiens, UniProt Q06187, C481S); assay: BTK C481S HTRF kinase assay; format: biochemical; settings: 30 min pre-incubation, 120 min reaction
T2 construct: purchased SignalChem
Description: [The procedure below names another variant; the source lists this variant under the same test.] Recombinant BTK wild type (BTK WT) was purchased from Thermo fisher.
In brief, recombinant kinases were pre-incubated in the presence or absence of compound at room temperature for 30 minutes. The reaction was initiated by the addition of the ATP and substrate peptide which could be phosphorylated by kinases in the reaction. After 120 minutes incubation, the reaction was stopped by the addition of the detection reagent mix containing EDTA.

[4] = In vitro rat hepatocytes clearance assay; format: in vitro ADME
Description: as §1, §2, §3, §4, §5, §6

T1 sequence (Q06187 whole entry): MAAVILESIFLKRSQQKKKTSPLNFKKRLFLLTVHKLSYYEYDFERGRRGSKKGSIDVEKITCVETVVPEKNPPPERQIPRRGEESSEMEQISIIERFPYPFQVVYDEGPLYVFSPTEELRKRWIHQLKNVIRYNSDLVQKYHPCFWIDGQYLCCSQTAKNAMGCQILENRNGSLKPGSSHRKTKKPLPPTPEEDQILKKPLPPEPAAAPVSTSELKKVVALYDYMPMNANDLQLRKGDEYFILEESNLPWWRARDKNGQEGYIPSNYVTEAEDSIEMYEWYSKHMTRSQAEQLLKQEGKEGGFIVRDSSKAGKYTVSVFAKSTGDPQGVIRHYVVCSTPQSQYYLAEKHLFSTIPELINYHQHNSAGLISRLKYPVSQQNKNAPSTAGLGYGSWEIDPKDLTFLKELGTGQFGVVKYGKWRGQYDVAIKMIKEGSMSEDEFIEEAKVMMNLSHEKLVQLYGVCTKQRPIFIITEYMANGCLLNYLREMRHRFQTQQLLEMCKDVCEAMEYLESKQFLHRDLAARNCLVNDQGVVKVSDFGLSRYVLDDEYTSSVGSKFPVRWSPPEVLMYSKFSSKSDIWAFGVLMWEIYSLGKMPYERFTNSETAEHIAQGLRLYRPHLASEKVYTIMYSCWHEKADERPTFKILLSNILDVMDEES
T2 sequence (Q06187 whole entry C481S): as the sequence (Q06187 whole entry) above, with C481S counted along it

Human Hep Clint [1] [μL/min/10∧6 cells]	Maximal Inhibition Level [2] [%]	IC50 [2] [nM]	logD at 2 h [3]	solubility (DMSO solubility) [µM]	IC50 (Recombinant BTK(C481S)) [nM]	Rat Hep Clint [4] [μL/min/10∧6 cells]	solubility (DMSO solubility; kinetic from dmso stock) [µM]	Compound
2.0	97.0	23.2	3.18	45.7 (≈ 20.7 µg/mL)	0.27	46.8	–	Nc1ncnn2c(C3CCC(CO)OC3)nc(-c3ccc(Oc4ccccc4)c(F)c3F)c12 (centres unmarked) [Compound 12, (5-(4-amino-5-(2,3-difluoro-4-phenoxyphenyl)imidazo[1,5-f][1,2,4]triazin-7-yl)tetrahydro-2H-pyran-2-yl)methanol]
2.5	98.0	24.3	3.29	–	0.86	9.48	48 (≈ 21.8 µg/mL)	Nc1ncnn2c(C3CCC(CO)OC3)nc(-c3ccc(Oc4cccc(F)c4F)cc3)c12 (centres unmarked) [Compound 14, (5-(4-amino-5-(4-(2,3-difluorophenoxy)phenyl)imidazo[5,1-f][1,2,4]triazin-7-yl)tetrahydro-2H-pyran-2-yl)methanol]
